Results reported in EP0513849B1, “Method of preparing transgenic Zea mays plants regenerated from protoplasts or protoplast-derived cells” (Novartis AG, priority 1987, dated 1988).

Experiments:
[1] = test system: Zea mays protoplasts; experiment: Colony formation from cultured Zea mays protoplasts in the presence of plant growth regulators (auxins) (Example 21); assay type: cell-based; conditions: 0.54 million protoplasts per ml, counted after 3 weeks
Protocol: (§1) The plates containing the protoplasts in agarose are placed in the dark at 26 °C. Within 14 days, cell colonies arise from the protoplasts. The agarose containing the colonies is transferred to the surface of a 9 cm diameter petri dish containing 30 ml of N6 medium with 2 mg/liter 2,4-D, solidified with 0.24% w/v Gelrite^R (2N6). The colonies are cultured to give callus. The callus is cultured further in the dark at 26 °C and callus pieces subcultured every 2 weeks onto fresh N6 medium containing 2 mg/liter 2,4-D (solidified with 0.24% w/v Gelrite^R).
Protoplasts are resuspended in the last step of example 3 in 6/7 strength KMC solution at 5 million per ml.
Aliquots of protoplast suspension are placed in 6cm diameter petri dishes at room temperature. 2 ml of KM medium containing 1.2% w/v SeaPlaque^R agarose, and 2,4-D, Picloram, Dicamba or para-Chlorophenoxyacetic acid (pCPA) to give the correct plant growth regulator concentrations is added. The final protoplast density used is 0.54 million per ml. The agarose and protoplasts are mixed well, and the medium allowed to gel.
The dishes are cultured as described in example 10. After a period of 3 weeks, macroscopic colonies arising in the dishes are counted.

[2] = test system: Zea mays protoplasts; experiment: Colony formation from Zea mays protoplasts with DMSO and O-acetyl-salicylic acid in the presence of 2,4-D (Example 20); assay type: cell-based; conditions: for number of formed colonies: no additions, 0.75 million protoplasts per ml, counted after 3 weeks
Protocol: as §1
Protoplasts are resuspended in the last step of example 3 in 6/7 strength KMC solution at 7.5 million per ml. The O-acetyl-salicylic acid is dissolved at 2.5 mg/ml in KM medium. The solution is filter sterilized. The O-acetyl-salicylic acid is then added to the culture medium immediately before use. Aliquots of protoplast suspension are placed in 6 cm diameter petri dishes at room temperature. 3 ml of KM medium containing 1.2% w/v SeaPlaque^R agarose, 2,4-D and O-acetyl salicylic acid is added so as to give the correct 2,4-D and O-acetyl-salicylic acid concentrations and a protoplast density of 0.5 million per ml. The agarose and protoplasts are mixed well, and the medium allowed to gel.
The protoplasts are prepared and plated at 0.75 million per ml as described in example 18, using 1 ml of medium per 3.5 cm diameter petri dish. O-acetyl-salicylic acid is included in the medium. The O-acetyl-salicylic acid is dissolved in DMSO and then added to the medium before plating of the protoplasts. To obtain a solution in DMSO, 1 g of O-acetyl-salicylic acid is dissolved in 10 ml DMSO, and added to 90 ml distilled water. The solution is then filter sterilized before use.
The dishes are cultured as described in example 10. After a period of 3 weeks, macroscopic colonies arising in the dishes are counted. […]

[3] = plant growth regulator concentration 0.1 mg/liter
[4] = plant growth regulator concentration 1 mg/liter
[5] = plant growth regulator concentration 10 mg/liter

Structure (SMILES)	number of colonies formed [1, 3]	number of colonies formed [1, 4]	number of colonies formed [1, 5]	number of formed colonies ([2]; 2,4-D 0.1 mg/liter)	number of formed colonies ([2]; 2,4-D 0.3 mg/liter)	number of formed colonies ([2]; 2,4-D 1.0 mg/liter)	colony forming efficiency ([2]; DMSO alone, 1% v/v)	effect on the stimulatory activity of O-acetyl-salicylic acid ([2]; O-acetyl-salicylic acid dissolved in DMSO)
O=C(O)COc1ccc(Cl)cc1Cl [2,4-D, 2,4-dichlorophenoxyacetic acid]	140	0	0	1	2	45		
C[S+](C)[O-] [DMSO]							no significant increase or decrease	potentiates the stimulatory activity of the O-acetyl-salicylic acid
COc1c(Cl)ccc(Cl)c1C(=O)O [dicamba, 3,6-dichloro-2-methoxy benzoic acid]	62	288	0					
O=C(O)COc1ccc(Cl)cc1 [pCPA, para-chlorophenoxyacetic acid]	52	0	0					
